Laboratory results as given in US20260232579A1 (Aspire Biopharma, Inc., priority 2023, published 2026).

How the values were obtained:
[1] = Determination of pH of aspirin samples (USP <791>); type: physicochemical; conditions: 1861.9 mg sample in 5.0 mL USP water, stirred 15 minutes
Procedure: Determination of the pH of a solution of a formulation disclosed herein may be accomplished by methods known in the art, e.g., as described herein and by standard protocols, e.g., by protocols described in the United States Pharmacopoeia, Chapter <791>.
The pH values of aspirin API and batch nos. F22006-001, F22006-004, F22006-002, F22006-003, and F22006-005 were determined using standard protocols as described in the United States Pharmacopoeia, Chapter <791>. […] The pH of the mixture was measured using a Mettler Toledo pH meter.

[2] = Henderson-Hasselbalch calculation of ionized to non-ionized aspirin at saliva pH
Text: In its conjugate base/ionized form, aspirin is unable to efficiently cross the mucous membranes in the oral cavity to enter the blood stream, rendering oral mucosal (e.g., sublingual and/or buccal) delivery of ionized aspirin inefficient. The pH of saliva in the oral cavity ranges between 6.2 to 7.6 (Dawood, […]. Saliva and Oral Health. Int. J. Adv. Res. Biol. Sci. 2018, 5, 1-45) depending on the individual, with an average pH of 6.7. The Henderson-Hasselbalch equation, represented by Equation 2 below, provides the ratio of conjugate base to acid at a given pH of an acid having a given pKa. […] Exemplary calculations are provided below. Using the lower saliva pH limit of 6.2 in equation 1: Using the upper saliva pH limit of 7.6 in equation 1: […]

For CC(=O)Oc1ccccc1C(=O)O [Aspirin, 2-acetoxybenzoic acid], which pH [1] is on record?
The pH was 2.62.

What about the “ionized aspirin molecules for every one molecule of non-ionized aspirin” value ([2]; average saliva pH value of 6.7, pKa […]) of the same compound?
Its value is 1584.

And the “ionized aspirin molecules for every one molecule of non-ionized aspirin” value ([2]; lower saliva pH limit of 6.2, pKa […])?
The value was 501.

What about the “ionized aspirin molecules for every one molecule of non-ionized aspirin” value ([2]; upper saliva pH limit of 7.6, pKa […]) of the same compound?
The value was 12589.
